Where two headings read alike, the source gives them in different places.
Legend:
[1] = test system: Key Grass and Sedge Weeds as well as Grass Crops; assay: Post-Emergent Test II: postemergent herbicidal activity, visual rating after 14 d (Table 8); assay type: in vivo; conditions: post-emergence, 336 h; for pest or weed control at 35 g/ha: 35 g ai/ha; for pest or weed control at 70 g/ha: 70 g ai/ha; for pest or weed control at 140 g/ha: 140 g ai/ha
Method in brief: (§1)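 Post-emergence foliar spray, 187 L/ha, first/second true leaf stage plants in potting mix (pH 6.0-6.8). Rates: top rate and 2-fold serial dilutions to 1/16×. Solvent-blank controls. Readout: visual % kill at 14 d.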

[2] = test system: Key Broadleaf Weed and Crop Species; assay: Post-Emergent Test II: postemergent herbicidal activity, visual rating after 14 d (Table 7); assay type: in vivo; conditions: post-emergence, 336 h; for pest or weed control at 35 g/ha: 35 g ai/ha; for pest or weed control at 70 g/ha: 70 g ai/ha; for pest or weed control at 140 g/ha: 140 g ai/ha
Method in brief: as §1

[3] = barnyardgrass (Echinochloa crus-galli), read-out: Visual Growth Reduction (%) 14 Days After Application ECHCG
[4] = giant foxtail (Setaria faberi), read-out: Visual Growth Reduction (%) 14 Days After Application SETFA
[5] = maize, corn (Zea mays), read-out: Visual Growth Reduction (%) 14 Days After Application ZEAMX
[6] = rice (Oryza sativa), read-out: Visual Growth Reduction (%) 14 Days After Application ORYSA
[7] = wheat, spring (Triticum aestivum), read-out: Visual Growth Reduction (%) 14 Days After Application TRZAS
[8] = yellow nutsedge (Cyperus esculentus), read-out: Visual Growth Reduction (%) 14 Days After Application CYPES
[9] = lambsquarters (Chenopodium album), read-out: Visual Growth Reduction (%) 14 Days After Application CHEAL
[10] = oilseed rape, canola (Brassica napus), read-out: Visual Growth Reduction (%) 14 Days After Application BRSNN
[11] = redroot pigweed (Amaranthus retroflexus), read-out: Visual Growth Reduction (%) 14 Days After Application AMARE
[12] = sunflower (Helianthus annuus), read-out: Visual Growth Reduction (%) 14 Days After Application HELAN
[13] = velvetleaf (Abutilon theophrasti), read-out: Visual Growth Reduction (%) 14 Days After Application ABUTH
[14] = wild poinsettia (Euphorbia heterophylla), read-out: Visual Growth Reduction (%) 14 Days After Application EPHHL

SMILES	pest or weed control at 35 g/ha [1, 3]	pest or weed control at 70 g/ha [1, 3]	pest or weed control at 140 g/ha [1, 3]	pest or weed control at 35 g/ha [1, 4]	pest or weed control at 70 g/ha [1, 4]	pest or weed control at 140 g/ha [1, 4]	pest or weed control at 35 g/ha [1, 5]	pest or weed control at 70 g/ha [1, 5]	pest or weed control at 140 g/ha [1, 5]	pest or weed control at 35 g/ha [1, 6]	pest or weed control at 70 g/ha [1, 6]	pest or weed control at 140 g/ha [1, 6]	pest or weed control at 35 g/ha [1, 7]	pest or weed control at 70 g/ha [1, 7]	pest or weed control at 140 g/ha [1, 7]	pest or weed control at 35 g/ha [1, 8]	pest or weed control at 70 g/ha [1, 8]	pest or weed control at 140 g/ha [1, 8]	pest or weed control at 35 g/ha [2, 9]	pest or weed control at 70 g/ha [2, 9]	further results
COC(=O)c1nc(-c2ccc3c(c2)OC(F)(F)O3)c(C)c(N)c1Cl [Compound 49]	0 to 29%	0 to 29%	0 to 29%	0 to 29%	0 to 29%	0 to 29%	30 to 44%	60 to 74%	60 to 74%	0 to 29%	0 to 29%	0 to 29%	0 to 29%	30 to 44%	30 to 44%	0 to 29%	0 to 29%	0 to 29%	0 to 29%	30 to 44%	pest or weed control at 140 g/ha [2, 9]: 85 to 94%; pest or weed control at 35 g/ha [2, 10]: 0 to 29%; pest or weed control at 70 g/ha [2, 10]: 0 to 29%; pest or weed control at 140 g/ha [2, 10]: 0 to 29%; pest or weed control at 35 g/ha [2, 11]: 0 to 29%; pest or weed control at 70 g/ha [2, 11]: 0 to 29%; pest or weed control at 140 g/ha [2, 11]: 0 to 29%; pest or weed control at 35 g/ha [2, 12]: 85 to 94%; pest or weed control at 70 g/ha [2, 12]: 85 to 94%; pest or weed control at 140 g/ha [2, 12]: 95 to 100%; pest or weed control at 35 g/ha [2, 13]: 0 to 29%; pest or weed control at 70 g/ha [2, 13]: 0 to 29%; pest or weed control at 140 g/ha [2, 13]: 30 to 44%; pest or weed control at 35 g/ha [2, 14]: 0 to 29%; pest or weed control at 70 g/ha [2, 14]: 0 to 29%; pest or weed control at 140 g/ha [2, 14]: 0 to 29%
Nc1c(F)c(-c2ccc3c(c2)OC(F)(F)O3)nc(C(=O)O)c1Cl [Compound 7]	95 to 100%	95 to 100%	95 to 100%	95 to 100%	95 to 100%	95 to 100%	95 to 100%	95 to 100%	95 to 100%	30 to 44%	30 to 44%	60 to 74%	45 to 59%	60 to 74%	60 to 74%	95 to 100%	95 to 100%	95 to 100%	95 to 100%	95 to 100%	pest or weed control at 140 g/ha [2, 9]: 95 to 100%; pest or weed control at 35 g/ha [2, 10]: 85 to 94%; pest or weed control at 70 g/ha [2, 10]: 85 to 94%; pest or weed control at 140 g/ha [2, 10]: 95 to 100%; pest or weed control at 35 g/ha [2, 11]: 75 to 84%; pest or weed control at 70 g/ha [2, 11]: 95 to 100%; pest or weed control at 140 g/ha [2, 11]: 95 to 100%; pest or weed control at 35 g/ha [2, 12]: 95 to 100%; pest or weed control at 70 g/ha [2, 12]: 95 to 100%; pest or weed control at 140 g/ha [2, 12]: 95 to 100%; pest or weed control at 35 g/ha [2, 13]: 85 to 94%; pest or weed control at 70 g/ha [2, 13]: 85 to 94%; pest or weed control at 140 g/ha [2, 13]: 95 to 100%; pest or weed control at 35 g/ha [2, 14]: 95 to 100%; pest or weed control at 70 g/ha [2, 14]: 95 to 100%; pest or weed control at 140 g/ha [2, 14]: 95 to 100%
COC(=O)c1nc(-c2cc3c(cc2F)OCO3)c(F)c(N)c1Cl [Compound 16]	60 to 74%	60 to 74%	75 to 84%	60 to 74%	60 to 74%	60 to 74%	30 to 44%	45 to 59%	75 to 84%	0 to 29%	0 to 29%	0 to 29%	0 to 29%	30 to 44%	45 to 59%	0 to 29%	45 to 59%	45 to 59%	45 to 59%	60 to 74%	pest or weed control at 140 g/ha [2, 9]: 60 to 74%; pest or weed control at 35 g/ha [2, 10]: 30 to 44%; pest or weed control at 70 g/ha [2, 10]: 60 to 74%; pest or weed control at 140 g/ha [2, 10]: 85 to 94%; pest or weed control at 35 g/ha [2, 11]: 85 to 94%; pest or weed control at 70 g/ha [2, 11]: 85 to 94%; pest or weed control at 140 g/ha [2, 11]: 95 to 100%; pest or weed control at 35 g/ha [2, 12]: 85 to 94%; pest or weed control at 70 g/ha [2, 12]: 95 to 100%; pest or weed control at 140 g/ha [2, 12]: 95 to 100%; pest or weed control at 35 g/ha [2, 13]: 60 to 74%; pest or weed control at 70 g/ha [2, 13]: 60 to 74%; pest or weed control at 140 g/ha [2, 13]: 75 to 84%; pest or weed control at 35 g/ha [2, 14]: 95 to 100%; pest or weed control at 70 g/ha [2, 14]: 95 to 100%; pest or weed control at 140 g/ha [2, 14]: 95 to 100%
